Among the data in US20140128385A1 (NOVARTIS AG, priority 2011, published 2014) are IC50 values, retold here.

Counter-ions that a name gives are not always drawn. Bounds are passed on as bounds.

As a reminder, the IC50 is the concentration that gives 50% inhibition. Higher therefore signals a need for much substance.

The target of the test is T1, BACE-2 (Homo sapiens, UniProt Q9Y5Z0).
T1 construct: Recombinant BACE-2 (extracellular domain, expressed in baculovirus and purified using standard methods); made in house
T1 sequence (Q9Y5Z0 63-473 limits assumed): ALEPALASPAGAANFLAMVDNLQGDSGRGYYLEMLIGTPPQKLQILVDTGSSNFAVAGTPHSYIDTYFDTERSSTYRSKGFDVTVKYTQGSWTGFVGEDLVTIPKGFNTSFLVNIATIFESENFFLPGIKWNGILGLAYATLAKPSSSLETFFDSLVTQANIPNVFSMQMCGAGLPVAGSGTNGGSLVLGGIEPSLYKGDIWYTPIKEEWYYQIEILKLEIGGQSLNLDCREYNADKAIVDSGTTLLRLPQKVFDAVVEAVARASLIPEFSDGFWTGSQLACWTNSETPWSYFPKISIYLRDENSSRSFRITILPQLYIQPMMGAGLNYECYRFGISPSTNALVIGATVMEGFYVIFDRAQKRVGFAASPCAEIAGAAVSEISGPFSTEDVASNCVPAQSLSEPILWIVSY
Nature of the test: assay for inhibition of BACE-2. In kind it is biochemical.
The compound `Cc1nc(C(=O)Nc2ccc(F)c([C@]3(C(F)F)COCC(N)=N3)c2)c(N)o1` [Example 168, 5-Amino-2-methyl-oxazole-4-carboxylic acid [3-((R)-5-amino-3-difluoromethyl-3,6-dihydro-2H-[1,4]oxazin-3-yl)-4-fluoro-phenyl]-amide hydrochloride] registered an IC50 of 35 nM. This counts as double-digit nanomolar.
For `NC1=N[C@@](c2cc(NC(=O)c3ncc(Cl)cc3O)ccc2F)(C(F)F)COC1` [Example 169, 5-Chloro-3-hydroxy-pyridine-2-carboxylic acid [3-((R)-5-amino-3-difluoromethyl-3,6-dihydro-2H-[1,4]oxazin-3-yl)-4-fluoro-phenyl]-amide], the IC50 came to 4 nM.
The result for `CC(C)Oc1cnc(C(=O)Nc2ccc(F)c([C@]3(C(F)F)COCC(N)=N3)c2)cn1` [Example 170, 5-Isopropoxy-pyrazine-2-carboxylic acid [3-((R)-5-amino-3-difluoromethyl-3,6-dihydro-2H-[1,4]oxazin-3-yl)-4-fluoro-phenyl]-amide] reads 2710 nM.
On to `CCOc1cnc(C(=O)Nc2ccc(F)c([C@]3(C(F)F)COCC(N)=N3)c2)cn1` [Example 171, 5-Ethoxy-pyrazine-2-carboxylic acid [3-((R)-5-amino-3-difluoromethyl-3,6-dihydro-2H-[1,4]oxazin-3-yl)-4-fluoro-phenyl]-amide], for which half-maximal inhibition (IC50) was put at 200 nM.
The figure for `Cc1c(C(=O)Nc2ccc(F)c([C@]3(C(F)F)COCC(N)=N3)c2)oc2ccc(CN(C)C)cc12` [Example 172, 5-Dimethylaminomethyl-3-methyl-benzofuran-2-carboxylic acid [3-((R)-5-amino-3-difluoromethyl-3,6-dihydro-2H-[1,4]oxazin-3-yl)-4-fluoro-phenyl]-amide hydrochloride] is 7 nM.
In turn, `Cc1c(C(=O)Nc2ccc(F)c([C@]3(C(F)F)COCC(N)=N3)c2)nnn1C` [Example 173, 1,5-Dimethyl-1H-[1,2,3]triazole-4-carboxylic acid [3-((R)-5-amino-3-difluoromethyl-3,6-dihydro-2H-[1,4]oxazin-3-yl)-4-fluoro-phenyl]-amide hydrochloride] displayed an IC50 of over 10000 nM.
The result for `COc1cnc(C(=O)Nc2ccc(F)c([C@]3(C(F)F)COCC(N)=N3)c2)c(C)n1` [Example 174, 5-Methoxy-3-methyl-pyrazine-2-carboxylic acid [3-((R)-5-amino-3-difluoromethyl-3,6-dihydro-2H-[1,4]oxazin-3-yl)-4-fluoro-phenyl]-amide hydrochloride] reads 276 nM.
The result for `COc1cnc(C(=O)Nc2ccc(F)c([C@]3(C(F)F)COCC(N)=N3)c2)c(N)n1` [Example 175, 3-Amino-5-methoxy-pyrazine-2-carboxylic acid [3-((R)-5-amino-3-difluoromethyl-3,6-dihydro-2H-[1,4]oxazin-3-yl)-4-fluoro-phenyl]-amide hydrochloride] reads 111 nM; that for `Cc1cc(OC(F)F)cnc1C(=O)Nc1ccc(F)c([C@]2(C(F)F)COCC(N)=N2)c1` [Example 176, 5-Difluoromethoxy-3-methyl-pyridine-2-carboxylic acid [3-((R)-5-amino-3-difluoromethyl-3,6-dihydro-2H-[1,4]oxazin-3-yl)-4-fluoro-phenyl]-amide hydrochloride], 183 nM; that for `Cc1cc(OCF)cnc1C(=O)Nc1ccc(F)c([C@]2(C(F)F)COCC(N)=N2)c1` [Example 177, 5-Fluoromethoxy-3-methyl-pyridine-2-carboxylic acid [3-((R)-5-amino-3-difluoromethyl-3,6-dihydro-2H-[1,4]oxazin-3-yl)-4-fluoro-phenyl]-amide hydrochloride], 37 nM.
`COCCOc1cnc(C(=O)Nc2ccc(F)c([C@]3(C(F)F)COCC(N)=N3)c2)c(C)n1` [Example 178, 5-(2-Methoxy-ethoxy)-3-methyl-pyrazine-2-carboxylic acid [3-((R)-5-amino-3-difluoromethyl-3,6-dihydro-2H-[1,4]oxazin-3-yl)-4-fluoro-phenyl]-amide hydrochloride]: the IC50 came to 2960 nM.
The figure for `COc1cnc(C(=O)Nc2ccc(F)c([C@]3(C(F)F)COCC(N)=N3)c2)c(OC)c1` [Example 179, 3,5-Dimethoxy-pyridine-2-carboxylic acid [3-((R)-5-amino-3-difluoromethyl-3,6-dihydro-2H-[1,4]oxazin-3-yl)-4-fluoro-phenyl]-amide hydrochloride] is 270 nM.
`COCCOc1ccc(C(=O)Nc2ccc(F)c([C@]3(C(F)F)COCC(N)=N3)c2)nc1` [Example 180, 5-(2-Methoxy-ethoxy)-pyridine-2-carboxylic acid [3-((R)-5-amino-3-difluoromethyl-3,6-dihydro-2H-[1,4]oxazin-3-yl)-4-fluoro-phenyl]-amide hydrochloride]: the half-maximal inhibitory concentration (IC50) worked out at 1650 nM.
The result for `COCCOc1cnc(C(=O)Nc2ccc(F)c([C@]3(C(F)F)COCC(N)=N3)c2)c(F)c1` [Example 181, 3-Fluoro-5-(2-methoxy-ethoxy)-pyridine-2-carboxylic acid [3-((R)-5-amino-3-difluoromethyl-3,6-dihydro-2H-[1,4]oxazin-3-yl)-4-fluoro-phenyl]-amide hydrochloride] reads 6080 nM.
Regarding `CC#CCOc1cnc(C(=O)Nc2ccc(F)c([C@]3(C(F)F)COCC(N)=N3)c2)c(C)n1` [Example 182, 5-But-2-ynyloxy-3-methyl-pyrazine-2-carboxylic acid [3-((R)-5-amino-3-difluoromethyl-3,6-dihydro-2H-[1,4]oxazin-3-yl)-4-fluoro-phenyl]-amide hydrochloride], the IC50 stood at 171 nM.
The result for `COCc1cnc(C(=O)Nc2ccc(F)c([C@]3(C(F)F)COCC(N)=N3)c2)c(Cl)c1` [Example 183, 3-Chloro-5-methoxymethyl-pyridine-2-carboxylic acid [3-((R)-5-amino-3-di-fluoromethyl-3,6-dihydro-2H-[1,4]oxazin-3-yl)-4-fluoro-phenyl]-amide hydrochloride] reads 4940 nM; that for `NC1=N[C@@](c2cc(NC(=O)c3ncc(OCF)cc3Cl)ccc2F)(C(F)F)COC1` [Example 184, 3-Chloro-5-fluoromethoxy-pyridine-2-carboxylic acid [3-((R)-5-amino-3-di-fluoromethyl-3,6-dihydro-2H-[1,4]oxazin-3-yl)-4-fluoro-phenyl]-amide hydrochloride], 47 nM.
The figure for `NC1=N[C@@](c2cc(NC(=O)c3ncc(OC(F)F)cc3Cl)ccc2F)(C(F)F)COC1` [Example 185, 3-Chloro-5-difluoromethoxy-pyridine-2-carboxylic acid [3-((R)-5-amino-3-difluoromethyl-3,6-dihydro-2H-[1,4]oxazin-3-yl)-4-fluoro-phenyl]-amide hydrochloride] is 199 nM; for `CN1CC(N)=NC(C)(c2cc(NC(=O)c3ccc(Br)cn3)ccc2F)C1=O` (centres unmarked) [Example 186, 5-Bromo-pyridine-2-carboxylic acid [3-(6-amino-2,4-dimethyl-3-oxo-2,3,4,5-tetrahydro-pyrazin-2-yl)-4-fluoro-phenyl]-amide] it is 9110 nM.
In turn, `CN1CC(N)=NC(C)(c2cc(NC(=O)c3ccc(Br)cn3)ccc2F)C1` (centres unmarked) [Example 187, 5-Bromo-pyridine-2-carboxylic acid [3-(6-amino-2,4-dimethyl-2,3,4,5-tetrahydro-pyrazin-2-yl)-4-fluoro-phenyl]-amide] displayed a concentration for half-maximal inhibition (IC50) of 104 nM.
The result for `CN1CC(N)=NC(C)(c2cccc(NC(=O)c3ccc(Br)cn3)c2)C1=O` (centres unmarked) [Example 188, 5-Bromo-pyridine-2-carboxylic acid [3-(6-amino-2,4-dimethyl-3-oxo-2,3,4,5-tetrahydro-pyrazin-2-yl)-phenyl]-amide] reads 798 nM.
The figure for `CN1CC(C)(c2cc(NC(=O)c3ccc(Br)cn3)ccc2F)N=C(N)C1=O` (centres unmarked) [Example 189, 5-Bromo-pyridine-2-carboxylic acid [3-(6-amino-2,4-dimethyl-5-oxo-2,3,4,5-tetrahydro-pyrazin-2-yl)-4-fluoro-phenyl]-amide hydrochloride] is 49 nM.
The result for `CN1CC(C)(c2cc(NC(=O)c3ccc(Cl)cn3)ccc2F)N=C(N)C1=O` (centres unmarked) [Example 190, 5-Chloro-pyridine-2-carboxylic acid [3-(6-amino-2,4-dimethyl-5-oxo-2,3,4,5-tetrahydro-pyrazin-2-yl)-4-fluoro-phenyl]-amide hydrochloride] reads 35 nM; that for `CCN1CC(C)(c2cc(NC(=O)c3ccc(Br)cn3)ccc2F)N=C(N)C1=O` (centres unmarked) [Example 191, 5-Bromo-pyridine-2-carboxylic acid [3-(6-amino-4-ethyl-2-methyl-5-oxo-2,3,4,5-tetrahydro-pyrazin-2-yl)-4-fluoro-phenyl]-amide hydrochloride], 30 nM; that for `CN1CC(C)(c2cc(NC(=O)c3ncc(Cl)cc3Cl)ccc2F)N=C(N)C1=O` (centres unmarked) [Example 192, 3,5-Dichloro-pyridine-2-carboxylic acid [3-(6-amino-2,4-dimethyl-5-oxo-2,3,4,5-tetrahydro-pyrazin-2-yl)-4-fluoro-phenyl]-amide hydrochloride], 13 nM.
Turning to `CCN1CC(C)(c2cc(NC(=O)c3ncc(Cl)cc3Cl)ccc2F)N=C(N)C1=O` (centres unmarked) [Example 193, 3,5-Dichloro-pyridine-2-carboxylic acid [3-(6-amino-4-ethyl-2-methyl-5-oxo-2,3,4,5-tetrahydro-pyrazin-2-yl)-4-fluoro-phenyl]-amide hydrochloride], half-maximal inhibition (IC50) required 8 nM.
